Assay results taken from patent US20160237406A1, “SEBOCYTES, SEBOCYTE CELL LINES AND APPLICATIONS THEREOF” (priority 2001, published 2016).

System: immortalized sebocytes (SZ95) and clones
Test: Growth behavior / cell proliferation test (4-methylumbelliferyl heptanoate fluorescence assay)
Format: cell-based, human
Conditions: for proliferation response of clones stimulated by retinoids: other clones, corresponds to response of normal human epidermal keratinocytes; for proliferation response of clones stimulated by retinoids / proliferation response of clones inhibited by retinoids: 10^-7 M retinoid, 9 days, FIG. 9; for proliferation response of clones inhibited by retinoids: some clones, order 13-cis-retinoic acid>all-trans-retinoic acid>>Acitretin
Method: _Cells were seeded in 96 well culture plates at densities of 0.5 to 4×10^3 cell/well. Cell proliferation was assessed by the 4-methylumbelliferylheptanoatefluorescence assay and measured automatically (Zouboulis et al. Melanoma. Res. 1991; 1:91-95).
To this extent, on the day of evaluation, the culture medium was removed, the cells were washed twice with PBS and […] 100 μg solution of 4-methylumbelliferyl heptanoate (Sigma, Deisenhofen, Germany) in PBS were added to each well. The plates were then incubated at 37° C. for 30 minutes and released fluorescence was measured by a suitable fluorescence measuring device (Titertec-Fluoroscan II; Flow, Meckenheim, Germany). Fluorescence units were obtained at 355 nm excitation and 460 nm emission filters.
_5α-dihydrctestosterone (5α-DHT; Sigma) was dissolved in DMSO and subsequently in serum-free, phenol-free modified DMEM/Ham's F12-Medium (1:1) (Gibco-BRL) with 2 mM n-Acetyl-L-alanyl-L-glutamine which was supplemented with 5 ng/ml EGF, 50 μg/ml bovine pituary extract, 1 mg/ml fatty acid-free bovine serum albumine (Boehringer Mannheim) and 50 μg/ml gentamycine to obtain a final concentration of 10^−6 M 5α-DHT and 0.1% DMSO. 0.1% DMSO alone served as a control. The cells (0.5 to 2×10^3/well) were treated with 5α-DHT for 18 days.
For the treatment with retinoids, all-trans-retinoic acid, 13-cis-retinoic acid and acitretin were dissolved in DMSO and subsequently placed in serum-free modified DME-Medium/Ham's F12-Medium (1:1) with […] N-Acetyl-L-alanyl-L-glutamine which was supplemented with 5 ng/ml EGE, 50 μg/ml bovine pituary extract, 1 mg/ml fatty acid-free bovine serum albumine and 50·μg/ml gentamycine to obtain a final concentration of 10^−7 M retinoid and 0,1% DMSO. 0,1% DMSO alone served as a control. Retinoids were handled under dim amber light. The cells (0.5 to 1×10^3/well) were treated with the retinoids for 9 days.

SMILES | proliferation response of clones stimulated by retinoids (serum-free medium) | proliferation response of clones inhibited by retinoids (serum-free medium) | effect on proliferation of the cells (10^-6 M 5α-DHT, serum-free medium, after the 8th day, vs control (p<0.05; p<0.01), FIG. 8) | population doubling time (exemplary sebocyte clone, seeding 2.000/well, serum-free medium supplemented with 10^-6 M 5α-DHT, 18 days, control 136 hours) [h]
CC1=C(/C=C/C(C)=C/C=C/C(C)=C\C(=O)O)C(C)(C)CCC1 [13-cis-retinoic acid] | stimulated in proliferation | inhibition of proliferation |  | 
COc1cc(C)c(/C=C/C(C)=C/C=C/C(C)=C/C(=O)O)c(C)c1C [Acitretin, acitretin] |  | inhibition of proliferation |  | 
CC1=C(/C=C/C(C)=C/C=C/C(C)=C/C(=O)O)C(C)(C)CCC1 [all-trans-retinoic acid] | stimulated in proliferation | inhibition of proliferation |  | 
C[C@]12CCC(=O)C[C@@H]1CC[C@@H]1[C@@H]2CC[C@]2(C)[C@@H](O)CC[C@@H]12 [5α-DHT, 5α-dihydrctestosterone] |  |  | increased the proliferation of the cells significantly | 53.7
